Consider 36 molecules from patent publication US20120058953A1, “COMPOSITIONS AND METHODS FOR ENHANCING APOPTOSIS” (Genentech, Inc., priority 2003, published 2012).

Assay [1] deals with T1, XIAP-BIR3 (Homo sapiens, UniProt P98170).
T1 construct: X-IAP BIR3 (amino acids residues 241-356); made in house; host or cells: Escherichia coli BL21 (DE3)
Kind of assay: fluorescence polarization competition assay, XIAP-BIR3. Format: binding. Here is the method: (§1) The apparent Kd values can be determined from the EC50 values.
(§2) The vectors pET15b-XIAPBIR2C202AC218G, pET15b-XIAPBIR3, and pET15b-MLIAPBIR were introduced into Escherichia coli strain BL21 (DE3). Overnight cultures were diluted 1:100 and grown at 30° C. in LB media with […] to an A600 of 0.5-0.7 with vigorous shaking. Isopropyl b-D-thiogalactoside (IPTG) was added to a final concentration of 1 mM and cultures were grown for 4 hours at 30° C. One litre of frozen cell pellet was resuspended in 100 ml Buffer A (50 mM Tris [pH 8.0], 300 mM NaCl, 5 mM b-mercaptoethanol, 0.5 mM PMSF, 2 mM benzamidine) with 5 mM imidazole and placed on ice for 30 minutes. Cells were lysed by homogenizing followed by repeated passes through a microfluidizer. Lysate was cleared by centrifugation at 15,000 rpm for 30 minutes. The supernatant was loaded onto a Ni-agarose column (Qiagen), washed with 10 column volumes Buffer A with 10 mM imidazole, and eluted with 10 column volumes Buffer A with 300 mM imidazole. Fractions containing BIR protein were pooled. Final concentrations of 5 mM DTT and 100 mM zinc acetate were added. The pool was concentrated and loaded on a Superdex 75™ (Pharmacia) sizing column. Protein eluted over one column volume into 50 mM Tris 8.0, 300 mM NaCl, 0.5 mM PMSF, 2 mM benzamidine, 5 mM DTT, 50 mM zinc acetate, 1 mM sodium azide. Fractions containing BIR protein were pooled and dialyzed against 4 changes of buffer containing 50 mM Tris (pH 8.0), 120 mM NaCl, 5 mM DTT, 0.5 mM PMSF, 2 mM benzamidine, 50 mM zinc acetate, 1 mM sodium azide. Protein was concentrated and stored at −80° C. for further characterization.
(§3) The apparent Kd values were determined from the EC50 values. […] Samples were read after a 10-minute incubation.
(In general: In fluorescence polarisation assays a small probe gives low polarisation when free and higher when bound to something large.)

Assay [2] addresses T2, XIAP-BIR2 (Homo sapiens, UniProt P98170, C202A/C213G).
T2 construct: X-IAP BIR2 (amino acid residues 124-240 with mutations C202A and C213G); made in house; host or cells: Escherichia coli BL21 (DE3)
Kind of assay: fluorescence polarization competition assay, XIAP-BIR2. The assay is classed as binding. Here is the method:
as §1, §2, §3

In assay [3] the target is T3, ML-IAP-BIR (Homo sapiens, UniProt Q96CA5).
T3 construct: made in house; host or cells: Escherichia coli BL21 (DE3)
T3 sequence (Q96CA5 63-179): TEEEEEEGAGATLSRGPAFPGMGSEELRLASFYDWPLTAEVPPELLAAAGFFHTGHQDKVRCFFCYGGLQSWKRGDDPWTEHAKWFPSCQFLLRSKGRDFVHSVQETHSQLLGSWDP
Description: fluorescence polarization competition assay, ML-IAP-BIR. Format: binding. Here is the method:
as §1, §2, §3

Assay [4] has as its target T4, XIAP-BIR3 (human, UniProt P98170 241-356).
T4 construct: range 241-356; Expressed in E. coli from pET15b and purified on Ni-agarose
Kind of assay: fluorescence polarization competition, SMAC-FAM or Hid-FAM probe.
Description: (§4) The Kᵢ values for the mutant peptides relative to the Kᵢ of [sequence]

In assay [5] the target is T5, ML-IAP-BIR (human, UniProt Q96CA5 63-179).
T5 construct: range 63-179; Expressed in E. coli from pET15b and purified on Ni-agarose; also called BIR domain of ML-IAP
T5 sequence (looked up): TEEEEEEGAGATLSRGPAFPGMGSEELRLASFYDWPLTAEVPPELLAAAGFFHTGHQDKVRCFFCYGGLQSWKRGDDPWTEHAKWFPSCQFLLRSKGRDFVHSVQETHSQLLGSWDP
The assay is described as above.
Description: as §4

For assay [6], the target named is T6, XIAP-BIR2 (human, UniProt P98170 124-240).
T6 construct: range 124-240; The text says C213G, the vector name reads pET15b-XIAPBIR2C202AC218G; Expressed in E. coli from pET15b
T6 sequence (P98170 124-240 C202A/C213G limits assumed): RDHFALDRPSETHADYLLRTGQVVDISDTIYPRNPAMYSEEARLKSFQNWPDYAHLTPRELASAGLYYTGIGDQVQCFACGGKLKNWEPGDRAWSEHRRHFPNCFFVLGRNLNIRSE
The description is as above.
Description: as §4

Assay [7] concerns the target T5, ML-IAP-BIR. Kind of assay: fluorescence polarization competition, SMAC-FAM probe.
Assay [8] addresses T6, XIAP-BIR2. Described as above.
Assay [9] addresses T4, XIAP-BIR3. Described as above.
The target in assay [10] is T5, ML-IAP-BIR. Described as above. This is another data set of the same source.
Assay [11] addresses T4, XIAP-BIR3. Described as above. This is another data set of the same source.
The mark [12] stands for this setting: Table 4, P4 amino acid/phenylethylamine scan, Hid-FAM probe.

Where two headings read alike, the source gives them in different places. Non-standard residues stand in square brackets, D forms with d. Residues, ends and D or L forms follow the SMILES beside them. No end group written: not given here. Phe(4-SO3H) = N[C@@H](Cc1ccc(S(=O)(=O)O)cc1)C(=O)O; Phe(4-I) = N[C@@H](Cc1ccc(I)cc1)C(=O)O; Phe(ol) = N[C@H](CO)Cc1ccccc1

T2 sequence (P98170 124-240 C202A/C213G): as the sequence (P98170 124-240 C202A/C213G limits assumed) above
T1 sequence (P98170 241-356): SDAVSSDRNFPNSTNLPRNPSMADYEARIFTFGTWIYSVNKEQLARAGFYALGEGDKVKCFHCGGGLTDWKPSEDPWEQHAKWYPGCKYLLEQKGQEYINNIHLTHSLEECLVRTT
T4 sequence (P98170 241-356 limits assumed): as the sequence (P98170 241-356) above

On to `CC(C)[C@H](NC(=O)[C@H](C)NC(=O)[C@H](CCC(=O)O)NC(=O)[C@H](C)N)C(=O)N1CCC[C@H]1C(=O)N[C@@H](Cc1c[nH]c2ccccc12)C(=O)N[C@@H](CCCCN)C(=O)N[C@@H](CO)C(=O)N[C@@H](CCC(=O)O)C(=O)O`, for which the Ki (as a rule, the dissociation constant of the complex between target and ligand, obtained from inhibition or displacement) in assay [1] is > 64 µM; in assay [2] it was 3.6 µM.

As to `CC(C)[C@H](NC(=O)[C@H](C)NC(=O)[C@H](CCC(N)=O)NC(=O)[C@H](C)N)C(=O)N[C@@H](C)C(=O)N[C@@H](Cc1c[nH]c2ccccc12)C(=O)N[C@@H](CCCCN)C(=O)N[C@@H](CO)C(=O)N[C@@H](CCC(=O)O)C(=O)O`, the Ki in assay [3] amounted to 7 µM. Turning to `CC(C)[C@H](NC(=O)[C@H](C)N)C(=O)NCC(=O)N[C@H](C(=O)N1CCC[C@H]1C(=O)N[C@@H](Cc1c[nH]c2ccccc12)C(=O)N[C@@H](CCCCN)C(=O)N[C@@H](CO)C(=O)N[C@@H](CCC(=O)O)C(=O)O)C(C)C`, in [3], affinity was put at a Ki of 6 µM. In assay [3], `CC[C@H](C)[C@H](NC(=O)[C@H](Cc1c[nH]c2ccccc12)NC(=O)[C@@H]1CCCN1C(=O)[C@@H](NC(=O)[C@H](C)N)C(C)C)C(=O)NCC(=O)N[C@@H](CCCCN)C(=O)N[C@@H](CO)C(=O)N[C@@H](CCC(=O)O)C(=O)O` gave a Ki of 0.33 µM. Regarding `CC(C)[C@H](NC(=O)[C@H](C)N)C(=O)N1CCC[C@H]1C(=O)N[C@@H](Cc1ccccc1)C(=O)O` [AVPF] (H-AVPF-OH; N-terminus assumed), in [3] (setting [12]), the Ki is 0.09 µM. The same measure, in the same setting: the value for `CC[C@H](C)[C@H](NC(=O)[C@@H]1CCCN1C(=O)[C@@H](NC(=O)[C@H](C)N)C(C)C)C(=O)O` [AVPI] was 0.33 µM; that for `CC(C)[C@H](NC(=O)[C@H](C)N)C(=O)N1CCC[C@H]1C(=O)NCC(c1ccccc1)c1ccccc1` [AVPX24] was 0.03 µM. Still for that read-out and setting: then `CC(C)[C@H](NC(=O)[C@H](C)N)C(=O)N1CCC[C@H]1C(=O)N[C@@H](CO)[C@@H](O)c1ccccc1` [AVPX25], with 1.5 µM; and `CC(C)[C@H](NC(=O)[C@H](C)N)C(=O)N1CCC[C@H]1C(=O)NCCc1cccc(C(F)(F)F)c1` [AVPX26], with 1.9 µM. On the same count and under the same terms, then `CC(C)[C@H](NC(=O)[C@H](C)N)C(=O)N1CCC[C@H]1C(=O)N[C@H](CO)[C@H](O)c1ccccc1` [AVPX27], with 0.41 µM. Turning to `CC(C)[C@H](NC(=O)[C@H](C)N)C(=O)N1CCC[C@H]1C(=O)N[C@@H]1C[C@H]1c1ccccc1` [AVPX28a], the Ki in assay [3] (setting [12]) stood at 0.85 µM; in assay [1] (setting [12]) it was 7.6 µM. For `CC(C)[C@H](NC(=O)[C@H](C)N)C(=O)N1CCC[C@H]1C(=O)N[C@H]1C[C@@H]1c1ccccc1` [AVPX28b] the same measures were 1 µM and 1.4 µM. `CC(CNC(=O)[C@@H]1CCCN1C(=O)[C@@H](NC(=O)[C@H](C)N)C(C)C)c1ccccc1` (stereo partly drawn) [AVPX31]: in [3] (setting [12]), affinity was put at a Ki of 0.27 µM.

Consider `CC(C)[C@H](NC(=O)[C@H](C)N)C(=O)N1CCC[C@H]1C(=O)N[C@H](CO)Cc1ccccc1` [AVPX32] (H-AVP[Phe(ol)]; N-terminus assumed), for which the figures for the Ki in assay [3] (setting [12]), in assay [1] (setting [12]) and in assay [2] (setting [12]) were 0.09 µM, 0.39 µM and 441 µM, respectively. In assay [3] (setting [12]), `CC(C)[C@H](NC(=O)[C@H](C)N)C(=O)N1CCC[C@H]1C(=O)NC[C@H](O)c1ccccc1` [AVPX33] registered a Ki of 0.31 µM.

Regarding `CCOc1cccc(CCNC(=O)[C@@H]2CCCN2C(=O)[C@@H](NC(=O)[C@H](C)N)C(C)C)c1` [AVPX34], the affinity in assay [3] (setting [12]) corresponds to a Ki of 0.78 µM. Still for that read-out and setting: the value for `COc1ccc(Br)cc1CCNC(=O)[C@@H]1CCCN1C(=O)[C@@H](NC(=O)[C@H](C)N)C(C)C` [AVPX36] was 1.3 µM. On the same count and under the same terms, then `CC(C)[C@H](NC(=O)[C@H](C)N)C(=O)N1CCC[C@H]1C(=O)NCCc1cccc(F)c1` [AVPX37], with 0.87 µM. The same measure, in the same setting: then `COC[C@H](Cc1ccccc1)NC(=O)[C@@H]1CCCN1C(=O)[C@@H](NC(=O)[C@H](C)N)C(C)C` [AVPX38], with 0.15 µM; and `CC(C)[C@H](NC(=O)[C@H](C)N)C(=O)N1CCC[C@H]1C(=O)NCCc1cccc(Cl)c1` [AVPX39], with 0.68 µM; and `CCOc1ccccc1CCNC(=O)[C@@H]1CCCN1C(=O)[C@@H](NC(=O)[C@H](C)N)C(C)C` [AVPX40], with 0.3 µM.

Take AEAVAWKSE: the Ki in [3] is 9.3 µM; in assay [1], > 64 µM; in assay [2] it was 2.5 µM. For AIPFEEKSE the same measures were 0.44 µM, 0.59 µM and 8.7 µM. For ATAVIEKSE the same measures were 4.3 µM, > 64 µM and 5.7 µM. Taken in the same sequence, the figures for AVPWGLKSE were 0.42 µM, 0.54 µM and 6.9 µM.

B1: AVPX2AQKSE (peptide)
peptide: AVP[Phe(4-SO3H)]AQKSE
For the molecule B1, in assay [4], the Ki was found to be 8.5 µM.

B2: AVPX7AQKSE (peptide)
peptide: AVPXAQKSE
modifications: X7 at position 4 is cyclopentylalanine
Regarding B2, the Ki in assay [5] is 7.9 µM; in [6], 229 µM.

B3: AVPX10AQKSE (peptide)
peptide: AVP[Phe(4-I)]AQKSE
For the molecule B3, the values for the Ki in assay [5] and in assay [6] were 0.45 µM and 27.7 µM, respectively.

B4: AVGVPWKSE (peptide)
peptide: AVGVPWKSE
On to B4, for which the Ki in assay [7] was determined as 6 µM.

B5: AEAVAWKSE (peptide)
peptide: AEAVAWKSE
B5: the Ki in assay [7] came to 9.3 µM; in [8] it was 2.5 µM. For the same molecule, the “fold weaker than the SMAC-based peptide” value in [9] is > 100 fold; in assay [10], ~10 fold. Further, the “fold specificity for ML-IAP-BIR relative to XIAP-BIR3” value in assay [10] is > 10 fold.

B6: AQAVAWKSE (peptide)
peptide: AQAVAWKSE
Molecule B6 came in with a Ki in [7] of 7 µM.

B7: AEAVPWKSE (peptide)
peptide: AEAVPWKSE
B7 displayed a Ki in assay [8] of 3.6 µM.

B8: AVPWGLKSE (peptide)
peptide: AVPWGLKSE
For B8, the Ki in [11] was 0.54 µM; in [7], 0.42 µM; in [8], 6.9 µM.

B9: AIPFEEKSE (peptide)
peptide: AIPFEEKSE
For B9, the Ki worked out at 0.59 µM in assay [11], 0.44 µM in assay [7] and 8.7 µM in assay [8].

B10: AVPWIGKSE (peptide)
peptide: AVPWIGKSE
With B10, the Ki in assay [7] amounted to 0.33 µM.

B11: ATAVIEKSE (peptide)
peptide: ATAVIEKSE
Regarding B11, the inhibition constant (Ki) is 4.3 µM in assay [7] and 5.7 µM in assay [8]. For the same molecule, the “fold weaker than the SMAC-based peptide” value in [9] is > 100 fold; in assay [10] it was ~10 fold. Also, the “fold specificity for ML-IAP-BIR relative to XIAP-BIR3” value in assay [10] is > 10 fold.
